In patent US8822446B2, “Pyrrolopyridine inhibitors of kinases” (AbbVie Inc., priority 2010, dated 2014):

Target: T1, Cdc7 (BEV coexpressed huCDC7/DBF4) (Homo sapiens, UniProt O00311)
T1 construct: made in house; host or cells: baculovirus expression vector (BEV) co-expression
Assay: Cdc7 enzyme inhibition assay ([33P]-ATP, biotinylated peptide substrate, FlashPlate)
Format: biochemical
Conditions: Ki generated from IC50 assuming ATP-competitive inhibition; 1 μM ATP, apparent ATP Km 0.7 μM; 1 hr reaction
Procedure: This example describes the assays that may be used to identify compounds having kinase activity.
Cdc7 (BEV coexpressed huCDC7/DBF4) is prepared internally. Cdc7 assays are conducted as follows with final concentrations as listed. In 384-well v-bottom polypropylene plates, 6 μL compound (2% DMSO), is mixed with 6 μL of Cdc7 (2 ug/mL), and Jerini peptide substrate A-A11 (biotin-C6linker-[…]) (2 μM), followed by immediate initiation with 6 μL […] (1 μM, 20 mCi/μmol) using a reaction buffer comprising 25 mM HEPES, pH 7.5, 1 mM DTT, 10 mM MgCl2, 100 μM, Na3VO4, 0.075 mg/ml Triton X-100. Reactions are quenched after 1 hr by the addition of 90 μL stop buffer (50 mM EDTA, 2M NaCl).
Table 1 depicts enzyme inhibition data (Ki) for exemplary compounds.

T1 sequence (O00311 whole entry): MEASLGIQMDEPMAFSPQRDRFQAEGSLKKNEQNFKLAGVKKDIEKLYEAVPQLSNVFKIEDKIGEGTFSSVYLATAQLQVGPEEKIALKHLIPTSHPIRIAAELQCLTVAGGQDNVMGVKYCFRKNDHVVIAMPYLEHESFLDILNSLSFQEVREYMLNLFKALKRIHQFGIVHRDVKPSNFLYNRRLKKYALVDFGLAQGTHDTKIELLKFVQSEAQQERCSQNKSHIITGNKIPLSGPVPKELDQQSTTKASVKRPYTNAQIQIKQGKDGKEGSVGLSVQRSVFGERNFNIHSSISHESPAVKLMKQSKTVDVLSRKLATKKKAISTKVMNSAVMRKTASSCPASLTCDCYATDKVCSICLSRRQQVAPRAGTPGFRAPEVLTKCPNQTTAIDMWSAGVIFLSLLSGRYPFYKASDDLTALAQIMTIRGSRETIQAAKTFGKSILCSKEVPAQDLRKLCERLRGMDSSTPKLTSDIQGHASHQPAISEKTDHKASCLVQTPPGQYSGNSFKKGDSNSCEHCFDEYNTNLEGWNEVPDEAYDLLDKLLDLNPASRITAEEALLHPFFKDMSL
T1 sequence (Q9UBU7 whole entry partner): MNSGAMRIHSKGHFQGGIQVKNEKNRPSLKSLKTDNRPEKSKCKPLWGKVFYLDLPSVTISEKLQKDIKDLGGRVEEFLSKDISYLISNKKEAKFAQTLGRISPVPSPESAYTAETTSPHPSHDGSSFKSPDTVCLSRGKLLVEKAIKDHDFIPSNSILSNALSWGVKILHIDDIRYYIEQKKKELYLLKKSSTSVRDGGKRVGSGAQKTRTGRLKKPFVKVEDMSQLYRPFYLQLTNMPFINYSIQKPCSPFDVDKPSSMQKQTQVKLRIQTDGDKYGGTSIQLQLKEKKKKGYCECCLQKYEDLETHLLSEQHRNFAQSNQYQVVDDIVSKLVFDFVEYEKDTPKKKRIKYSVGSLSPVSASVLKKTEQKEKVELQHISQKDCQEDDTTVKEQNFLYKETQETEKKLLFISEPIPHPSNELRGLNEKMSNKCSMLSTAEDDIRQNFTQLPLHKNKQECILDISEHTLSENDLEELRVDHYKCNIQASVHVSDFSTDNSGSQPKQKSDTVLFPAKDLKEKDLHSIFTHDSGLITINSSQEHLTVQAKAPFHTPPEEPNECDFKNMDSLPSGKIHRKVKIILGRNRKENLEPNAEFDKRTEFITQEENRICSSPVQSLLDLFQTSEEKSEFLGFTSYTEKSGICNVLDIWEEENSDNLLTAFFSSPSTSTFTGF

SMILES | Ki
COc1ccc(C(F)(F)F)cc1-c1cc(-c2c[nH]c3ncccc23)cc(=O)[nH]1 [Example 46, 6-[2-methoxy-5-(trifluoromethyl)phenyl]-4-(1H-pyrrolo[2,3-b]pyridin-3-yl)pyridin-2(1H)-one] | < 10 nM
N[C@H]1CC[C@H](Nc2cc(-c3c[nH]c4ncccc34)cc(=O)[nH]2)CC1 [Example 56, 6-[(trans-4-aminocyclohexyl)amino]-4-(1H-pyrrolo[2,3-b]pyridin-3-yl)pyridin-2(1H)-one] | < 10 nM
O=c1cc(-c2c[nH]c3ncccc23)cc(N[C@H]2CC[C@H](NS(=O)(=O)C3CC3)CC2)[nH]1 [Example 57, N-(trans-4-{[6-oxo-4-(1H-pyrrolo[2,3-b]pyridin-3-yl)-1,6-dihydropyridin-2-yl]amino}cyclohexyl)cyclopropanesulfonamide] | < 10 nM
O=C(N[C@H]1CC[C@H](Nc2cc(-c3c[nH]c4ncccc34)cc(=O)[nH]2)CC1)C1CC1 [Example 58, N-(trans-4-{[6-oxo-4-(1H-pyrrolo[2,3-b]pyridin-3-yl)-1,6-dihydropyridin-2-yl]amino}cyclohexyl)cyclopropanecarboxamide] | < 10 nM
O=C(N[C@H]1CC[C@H](Nc2cc(-c3c[nH]c4ncccc34)cc(=O)[nH]2)CC1)C1CN(Cc2ccc(F)cc2)C1 [Example 59, 1-(4-fluorobenzyl)-N-(trans-4-{[6-oxo-4-(1H-pyrrolo[2,3-b]pyridin-3-yl)-1,6-dihydropyridin-2-yl]amino}cyclohexyl)azetidine-3-carboxamide] | < 10 nM
Cc1ccc(-c2nc(-c3c[nH]c4ncccc34)cc(=O)[nH]2)cc1 [Example 60, 2-(4-methylphenyl)-6-(1H-pyrrolo[2,3-b]pyridin-3-yl)pyrimidin-4(3H)-one] | < 10 nM
Cc1cccc(-c2nc(-c3c[nH]c4ncccc34)cc(=O)[nH]2)c1 [Example 61, 2-(3-methylphenyl)-6-(1H-pyrrolo[2,3-b]pyridin-3-yl)pyrimidin-4(3H)-one] | < 10 nM
Cc1cccc(-c2nc(-c3c[nH]c4ncccc34)cc(=O)[nH]2)c1C [Example 62, 2-(2,3-dimethylphenyl)-6-(1H-pyrrolo[2,3-b]pyridin-3-yl)pyrimidin-4(3H)-one] | < 10 nM
NCCCOc1cccc(CNc2nc(-c3c[nH]c4ncccc34)cc(=O)[nH]2)c1 [Example 63, 2-{[3-(3-aminopropoxy)benzyl]amino}-6-(1H-pyrrolo[2,3-b]pyridin-3-yl)pyrimidin-4(3H)-one] | < 10 nM

Other lines, results leading:

Ki | SMILES
< 10 nM | O=c1cc(-c2c[nH]c3ncccc23)cc(-c2cccc(Cl)c2)[nH]1 [Example 42, 6-(3-chlorophenyl)-4-(1H-pyrrolo[2,3-b]pyridin-3-yl)pyridin-2(1H)-one]
< 10 nM | COc1cccc(-c2cc(-c3c[nH]c4ncccc34)cc(=O)[nH]2)c1OC [Example 43, 6-(2,3-dimethoxyphenyl)-4-(1H-pyrrolo[2,3-b]pyridin-3-yl)pyridin-2(1H)-one]
< 10 nM | COc1cccc(-c2cc(-c3c[nH]c4ncccc34)cc(=O)[nH]2)c1F [Example 44, 6-(2-fluoro-3-methoxyphenyl)-4-(1H-pyrrolo[2,3-b]pyridin-3-yl)pyridin-2(1H)-one]
< 10 nM | O=c1cc(-c2c[nH]c3ncccc23)cc(-c2ccc(Cl)cc2F)[nH]1 [Example 45, 6-(4-chloro-2-fluorophenyl)-4-(1H-pyrrolo[2,3-b]pyridin-3-yl)pyridin-2(1H)-one]
< 10 nM | COc1ncccc1-c1cc(-c2c[nH]c3ncccc23)cc(=O)[nH]1 [Example 47, 2′-methoxy-4-(1H-pyrrolo[2,3-b]pyridin-3-yl)-2,3′-bipyridin-6(1H)-one]
< 10 nM | Cc1c(Cl)cccc1-c1cc(-c2c[nH]c3ncccc23)cc(=O)[nH]1 [Example 48, 6-(3-chloro-2-methylphenyl)-4-(1H-pyrrolo[2,3-b]pyridin-3-yl)pyridin-2(1H)-one]
< 10 nM | COc1nccc(-c2cc(-c3c[nH]c4ncccc34)cc(=O)[nH]2)c1Cl [Example 49, 3′-chloro-2′-methoxy-4-(1H-pyrrolo[2,3-b]pyridin-3-yl)-2,4′-bipyridin-6(1H)-one]
< 10 nM | O=c1cc(-c2c[nH]c3ncccc23)cc(-c2cccc(N3CCOCC3)c2)[nH]1 [Example 50, 6-[3-(morpholin-4-yl)phenyl]-4-(1H-pyrrolo[2,3-b]pyridin-3-yl)pyridin-2(1H)-one]
< 10 nM | CS(=O)(=O)c1cccc(-c2cc(-c3c[nH]c4ncccc34)cc(=O)[nH]2)c1 [Example 51, 6-[3-(methylsulfonyl)phenyl]-4-(1H-pyrrolo[2,3-b]pyridin-3-yl)pyridin-2(1H)-one]
< 10 nM | O=c1cc(-c2c[nH]c3ncccc23)cc(-c2cn[nH]c2)[nH]1 [Example 52, 6-(1H-pyrazol-4-yl)-4-(1H-pyrrolo[2,3-b]pyridin-3-yl)pyridin-2(1H)-one]
< 10 nM | Cc1ncccc1-c1cc(-c2c[nH]c3ncccc23)cc(=O)[nH]1 [Example 53, 2′-methyl-4-(1H-pyrrolo[2,3-b]pyridin-3-yl)-2,3′-bipyridin-6(1H)-one]
< 10 nM | COc1cccc(Nc2cc(-c3c[nH]c4ncccc34)cc(=O)[nH]2)c1 [Example 54, 6-[(3-methoxyphenyl)amino]-4-(1H-pyrrolo[2,3-b]pyridin-3-yl)pyridin-2(1H)-one]
< 10 nM | O=c1cc(-c2c[nH]c3ncccc23)cc(Nc2ccccc2)[nH]1 [Example 55, 6-anilino-4-(1H-pyrrolo[2,3-b]pyridin-3-yl)pyridin-2(1H)-one]
